# Experimental data from patent US20050136118A1, “Distribution and preparation of germicidal compositions” (priority 2003, published 2005).
# “And” between values parts separate entries of the source, which are not always exact repeats. Equal values may be shown once. Read-outs that look alike come from different tables or passages of the source.
# Key:
# Bacillus subtilis spores [1] = assay: spore suspension test, killing of Bacillus subtilis spores; type: cell-based; conditions: for Log Reduction/mL, 8 hr: 8 hr exposure; for Log Reduction/mL (3 hr, 20° C., pH = 8): 3 hr exposure; for Log Reduction/mL, 24 hr: 24 hr exposure; for Log Reduction/mL, 4 hr: 4 hr exposure
# [2] = storage stability of phthalaldehyde solution (loss by Cannizzaro reaction); type: physicochemical; conditions: about 11 weeks
# From the text: Overall, the Cannizzaro reaction generally leads to loss of phthalaldehyde and a decrease in the germicidal efficacy of the solution. While a pH of from 6 to 10, or 7.5 to 9 generally enhances the efficacy of the phthalaldehyde-carbonate solution, the higher or alkaline pH also generally promotes the Cannizzaro reaction. […] However, about 14% of the phthalaldehyde may be lost if the same solution is stored for about 11 weeks at a pH of 9, at room temperature. Even more of the phthalaldehyde may be converted if the storage period is longer, if the temperature is higher, or if the pH is higher than 9.
# [3] = cited from earlier work
# Bacillus subtilis spores [4] = conditions: cited from earlier work
# [5] = system: Clostridium sporogenes spores; conditions: cited from earlier work
# Mycobacterium bovis BCG = conditions: at least 0.25% by weight phthalaldehyde as sole active ingredient, 20° C.; cited from earlier work
# [6] = pH range of 3 to 9; cited from earlier work
# Bacillus subtilis spores [7] = conditions: cited from earlier work; remark: listed apart in the source
# spores = conditions: 0.3% (w/v) NaHCO3 added; cited from earlier work
# [8] = 0.25% phthalaldehyde as sole active ingredient, 20° C.
# [9] = 20° C., composition and pH per label
molecule,measurement,setting,value
"O=Cc1ccccc1C=O [0.3% OPA, phthalaldehyde]","Log Reduction/mL, 2 hr","Bacillus subtilis spores [1]; 20° C., 2 hr exposure, composition and pH per label",0.4 log/mL
same,"Log Reduction/mL, 6 hr","Bacillus subtilis spores [1]; 20° C., 6 hr exposure",0.7 log/mL
same,"Log Reduction/mL, 8 hr",Bacillus subtilis spores [1]; 20° C.,~0.6 log/mL
same,"Log Reduction/mL (3 hr, 20° C., pH = 8)",Bacillus subtilis spores [1],0.10 log/mL
same,"Log Reduction/mL (20° C., 4 hrs), [NaHCO3], 63 mM","Bacillus subtilis spores [1]; 4 hrs, labelled solution additionally contains 63 mM NaHCO3",1.5 log/mL and 1.4 log/mL
same,"Log Reduction/mL (20° C., 4 hrs), [Phosphate], 63 mM","Bacillus subtilis spores [1]; 4 hrs, labelled solution additionally contains 63 mM phosphate",0.7 log/mL
same,"Log Reduction/mL (20° C., 4 hrs), [NaF], 400 mM","Bacillus subtilis spores [1]; 4 hrs, labelled solution additionally contains 400 mM NaF",4.7 log/mL
same,"Log Reduction/mL (20° C., 4 hrs), [NaF], 0 mM","Bacillus subtilis spores [1]; 4 hrs, no NaF added to the labelled solution",0.4 log/mL
same,"Log Reduction/mL (20° C., 4 hrs), [NaHCO3], 0 mM","Bacillus subtilis spores [1]; 4 hrs, no NaHCO3",0.5 log/mL
same,"Log Reduction/mL (20° C., 4 hrs), [Phosphate], 0 mM","Bacillus subtilis spores [1]; 4 hrs, no phosphate",0.4 log/mL
same,loss of phthalaldehyde on storage,"[2]; pH 7 or lower, room temperature to about 40° C.",without a noticeable loss
same,phthalaldehyde lost on storage,"[2]; pH 9, room temperature",about 14%
same,solubility in water,[3],about 5 % by weight
same,time for sporicidal activity,Bacillus subtilis spores [4]; [8],24 h
same,time to achieve sterilization,Bacillus subtilis spores [4]; 1.0% phthalaldehyde,10 h
same,time for sporicidal activity,[5]; [8],24 h
same,time to achieve sterilization,[5]; 1.0% phthalaldehyde,10 h
same,time to kill all Mycobacterium bovis BCG in contact (high-level disinfection),Mycobacterium bovis BCG,≤ 10 min
same,storage stability of single-component compositions,[6],excellent stability
"O=CCCCC=O [2.4% Glutaraldehyde, glutaraldehyde]","Log Reduction/mL (3 hr, 20° C., pH = 8)",Bacillus subtilis spores [1],<1.1 log/mL
same,effect of salt concentration on sporicidal activity,Bacillus subtilis spores [7]; salt ranging from 0 to 1M,increasing with an increase in concentration of sodium bicarbonate or sodium chloride
"[F-].[Li+] [100 mM LiF, lithium fluoride]","Log Reduction/mL, 24 hr",Bacillus subtilis spores [1]; 20° C.,0.0 log/mL
"[F-].[K+] [1000 mM KF, potassium fluoride]","Log Reduction/mL, 8 hr",Bacillus subtilis spores [1]; 20° C.,0.0 log/mL
same,"Log Reduction/mL, 24 hr",Bacillus subtilis spores [1]; 20° C.,0.1 log/mL
same,"Log Reduction/mL (3 hr, 20° C., pH = 8)",Bacillus subtilis spores [1],0.0 log/mL
"[I-].[K+] [1000 mM KI, potassium iodide]","Log Reduction/mL (3 hr, 20° C., pH = 8)",Bacillus subtilis spores [1],0.0 log/mL
"[Br-].[Na+] [1000 mM NaBr, sodium bromide]","Log Reduction/mL, 4 hr",Bacillus subtilis spores [1]; [9],0.0 log/mL
same,"Log Reduction/mL, 24 hr",Bacillus subtilis spores [1]; 20° C.,0.1 log/mL
"[Cl-].[Na+] [1000 mM NaCl, sodium chloride]","Log Reduction/mL, 24 hr",Bacillus subtilis spores [1]; 20° C.,0.2 log/mL
"[F-].[Na+] [1000 mM NaF, sodium fluoride]","Log Reduction/mL, 8 hr",Bacillus subtilis spores [1]; 20° C.,0.0 log/mL
"[I-].[Na+] [1000 mM NaI, sodium iodide]","Log Reduction/mL, 4 hr",Bacillus subtilis spores [1]; [9],0.0 log/mL
same,"Log Reduction/mL, 8 hr",Bacillus subtilis spores [1]; 20° C.,0.0 log/mL
same,"Log Reduction/mL, 24 hr",Bacillus subtilis spores [1]; 20° C.,0.1 log/mL
CCCC=O [butyraldehyde],effect of addition of NaHCO3 on sporicidal action,spores,did not affect
O=CC=O [glyoxal],effect of addition of NaHCO3 on sporicidal action,spores,did not affect
OO [hydrogen peroxide],effect of salt concentration on sporicidal activity,Bacillus subtilis spores [7]; salt ranging from 0 to 1M,not affected
CC(=O)OO [peracetic acid],effect of salt concentration on sporicidal activity,Bacillus subtilis spores [7]; salt ranging from 0 to 1M,not affected
Oc1ccccc1 [phenol],effect of salt concentration on sporicidal activity,Bacillus subtilis spores [7],not affected
OCl [sodium hypochlorite],effect of salt concentration on sporicidal activity,Bacillus subtilis spores [7]; salt ranging from 0 to 1M,not affected
cupric ascorbate,effect of salt concentration on sporicidal activity,Bacillus subtilis spores [7]; salt ranging from 0 to 1M,not affected
